Source: the supplement of paper PMC10307832

What was measured:
Assay in all cases: relative viability (nuclei count vs DMSO), 5 days (fraction); higher = more cells survive
NCI-H1793 = system: NCI-H1793
Procedure, shortened: (§1)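 Relative viability was taken as the ratio of nuclei in treated wells to nuclei in vehicle wells. Lung cancer cell lines in 1536-well plates received compounds by pin tool one day after seeding, either one drug alone or a fixed anchor-drug dose plus five library-drug doses (not always all listed) in √10 steps. Nuclei were counted on 4× images after 5 days of treatment, and values are medians of duplicate plates.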

NCI-H1944 = system: NCI-H1944
Procedure, shortened: as §1

NCI-H1993 = system: NCI-H1993
Procedure, shortened: as §1

NCI-H2023 = system: NCI-H2023
Procedure, shortened: as §1

NCI-H2126 = system: NCI-H2126
Procedure, shortened: as §1

NCI-H2228 = system: NCI-H2228
Procedure, shortened: as §1

NCI-H23 = system: NCI-H23
Procedure, shortened: as §1

NCI-H2405 = system: NCI-H2405
Procedure, shortened: as §1

NCI-H358 = system: NCI-H358
Procedure, shortened: as §1

NCI-H838 = system: NCI-H838
Procedure, shortened: as §1

SK-LU-1 = system: SK-LU-1
Procedure, shortened: as §1

Cc1sc2c(c1C)C(c1ccc(Cl)cc1)=N[C@@H](CC(=O)OC(C)(C)C)c1nnc(C)n1-2 [JQ1] + O=C(c1cc(Cc2n[nH]c(=O)c3ccccc23)ccc1F)N1CCN(C(=O)C2CC2)CC1 [Olaparib] (partner 8 µM)
relative viability (NCI-H1793; first compound 0.04 µM): 0.882
relative viability (NCI-H1793; first compound 0.1265 µM): 0.735
relative viability (NCI-H1793; first compound 0.4 µM): 0.666
relative viability (NCI-H1793; first compound 1.265 µM): 0.526
relative viability (NCI-H1793; first compound 4 µM): 0.52
relative viability (NCI-H1944; first compound 0.04 µM): 0.405
relative viability (NCI-H1944; first compound 0.1265 µM): 0.391
relative viability (NCI-H1944; first compound 0.4 µM): 0.314
relative viability (NCI-H1944; first compound 1.265 µM): 0.232
relative viability (NCI-H1944; first compound 4 µM): 0.235
relative viability (NCI-H1993; first compound 0.04 µM): 0.922
relative viability (NCI-H1993; first compound 0.1265 µM): 0.994
relative viability (NCI-H1993; first compound 0.4 µM): 1.1
relative viability (NCI-H1993; first compound 1.265 µM): 0.807
relative viability (NCI-H1993; first compound 4 µM): 0.584
relative viability (NCI-H2023; first compound 0.04 µM): 0.442
relative viability (NCI-H2023; first compound 0.1265 µM): 0.342
relative viability (NCI-H2023; first compound 0.4 µM): 0.207
relative viability (NCI-H2023; first compound 1.265 µM): 0.104
relative viability (NCI-H2023; first compound 4 µM): 0.0832
relative viability (NCI-H2126; first compound 0.04 µM): 0.895
relative viability (NCI-H2126; first compound 0.1265 µM): 0.909
relative viability (NCI-H2126; first compound 0.4 µM): 0.951
relative viability (NCI-H2126; first compound 1.265 µM): 0.8
relative viability (NCI-H2126; first compound 4 µM): 0.735
relative viability (NCI-H2228; first compound 0.04 µM): 0.628
relative viability (NCI-H2228; first compound 0.1265 µM): 0.434
relative viability (NCI-H2228; first compound 0.4 µM): 0.356
relative viability (NCI-H2228; first compound 1.265 µM): 0.123
relative viability (NCI-H2228; first compound 4 µM): 0.181
relative viability (NCI-H23; first compound 0.04 µM): 0.329
relative viability (NCI-H23; first compound 0.1265 µM): 0.341
relative viability (NCI-H23; first compound 0.4 µM): 0.162
relative viability (NCI-H23; first compound 1.265 µM): 0.179
relative viability (NCI-H23; first compound 4 µM): 0.127
relative viability (NCI-H2405; first compound 0.04 µM): 0.867
relative viability (NCI-H2405; first compound 0.4 µM): 0.851
relative viability (NCI-H2405; first compound 1.265 µM): 0.693
relative viability (NCI-H2405; first compound 4 µM): 0.433
relative viability (NCI-H358; first compound 0.04 µM): 0.509
relative viability (NCI-H358; first compound 0.1265 µM): 0.58
relative viability (NCI-H358; first compound 0.4 µM): 0.604
relative viability (NCI-H358; first compound 1.265 µM): 0.406
relative viability (NCI-H358; first compound 4 µM): 0.37
relative viability (NCI-H838; first compound 0.04 µM): 0.749
relative viability (NCI-H838; first compound 0.1265 µM): 0.327
relative viability (NCI-H838; first compound 0.4 µM): 0.395
relative viability (NCI-H838; first compound 1.265 µM): 0.237
relative viability (NCI-H838; first compound 4 µM): 0.174
relative viability (SK-LU-1; first compound 0.04 µM): 0.452
relative viability (SK-LU-1; first compound 0.1265 µM): 0.358
relative viability (SK-LU-1; first compound 0.4 µM): 0.374
relative viability (SK-LU-1; first compound 1.265 µM): 0.153
relative viability (SK-LU-1; first compound 4 µM): 0.124
